The source made the active and inactive calls. The rule behind the calls is not given here.
How the values were obtained:
Leishmania donovani [1] = experiment: Antileishmanial activity against Leishmania donovani; assay type: functional, organism-based
THP-1 [2] = experiment: Induction of nitric oxide production in human THP1 cells infected with Leishmania donovani amastigotes at 0.93 uM incubated for 48 hrs by Griess assay relative to untreated control; assay type: functional
Leishmania donovani [3] = experiment: microbe, parasite or virus in culture; details: THP-1, 48 h
Description: Antileishmanial activity against Leishmania donovani amastigotes infected in human THP1 cells at 10 to 210 uM incubated for 48 hrs by Giemsa staining based optical microscopy

THP-1 [4] = experiment: Induction of iNOS2 mRNA expression in human THP1 cells infected with Leishmania donovani amastigotes at 0.93 uM incubated for 5 hrs by RT-PCR method; assay type: functional, cell-based
[5] = (§1) Selectivity index, ratio of CC50 for human THP1 cells to IC50 for Leishmania donovani amastigotes infected in human THP1 cells; assay type: functional, THP-1
Leishmania donovani [6] = experiment: Antileishmanial activity against Leishmania donovani amastigotes infected in human THP1 cells assessed as parasite growth inhibition at 100 uM incubated for 48 hrs by Giemsa staining based optical microscopy; assay type: functional; details: THP-1, 48 h, read-out: GI
[7] = Cytotoxicity against human THP1 cells incubated for 92 hrs by MTT assay; assay type: cell-based; details: THP-1 cells
Leishmania donovani [8] = experiment: Antileishmanial activity against Leishmania donovani AG83 promastigotes assessed as parasite growth inhibition incubated for 92 hrs by MTT assay; assay type: functional, organism-based; details: AG83, 92 h
THP-1 [9] = experiment: Induction of nitric oxide production in human THP1 cells infected with Leishmania donovani amastigotes at 32.3 uM incubated for 48 hrs by Griess assay relative to untreated control; assay type: functional, cell-based
THP-1 [10] = experiment: as §1; assay type: functional

Question: For `COc1cc(-c2oc3cc(O)cc(O)c3c(=O)c2O)cc(OC)c1OC`, which IC50 (Leishmania donovani [1]) is on record?
Answer: > 30 µg/mL

Question: What does the source list for `COc1cc(O)c2c(=O)c(OC)c(-c3cc(O)c(O)c(OC)c3)oc2c1`?
Answer: fold change (FC) (THP-1 [2]): 8.4; IC50 (Leishmania donovani [3]): 0.93 µM; Activity (THP-1 [4]): Active; Ratio CC50/IC50 [5]: 133.01; inhibition of growth at 100 µM (Leishmania donovani [6]): 100%; CC50 at 92 h [7]: 124 µM; IC50 (Leishmania donovani [8]): 2.4 µM; IC90 (Leishmania donovani [8]): 28.1 µM

Question: Which results are given for sodium antimonygluconate?
Answer: Activity (THP-1 [9]): inactive; Ratio CC50/IC50 (THP-1 [10]): 10.1
